The values that follow come from publication PMC6312359, “Diisopropylphenyl-imidazole (DII): A new compound that exerts anthelmintic activity through novel molecular mechanisms” (PLoS Neglected Tropical Diseases, 2018).

≈ marks a conversion by molar mass, not a printed value. Where “and” joins values, the source holds several entries; their conditions need not be identical. Equal entries are not always repeated. Where two headings read alike, the source gives them in different places. Bounds are passed on as bounds.

In assay [1] the test system is C. elegans. Put plainly: Screening imidazole compounds: worm survival. Conditions: 150 μg/ml, 72 h, 20°C, young adult wild-type worms, liquid medium (S-Basal) with E. coli OP50. The format is in vivo, Caenorhabditis elegans. The method, then:
100–150 young adult wild-type worms were exposed to these compounds (150 μg/ml) in liquid medium (S-Basal) containing E. coli OP50. Micromolar concentrations for each compound are: 487 μM for 1, 428 μM for 2, 410 μM for 3, 375 μM for 4, 789 μM for 5, 735 μM for 6, 389 μM for 7, 319 μM for 8, 263 μM for 9, 806 μM for 10 and 657 μM for 11. Compounds were dissolved in water or DMSO according to their solubility. After 72 h, animal survival was analyzed. An animal was considered dead if it made no movement in response to gentle prodding with a worm pick. At least three independent experiments were analyzed.
We exposed 100–150 young adult worms to these compounds in liquid medium (S-Basal) containing the bacteria E. coli OP50 as a food source. After 72 h at 20°C, we analyzed worm survival (Fig 1B). […] The drug concentration chosen for this screening was 150 μg/ml, which is similar to those used in other screening studies. The corresponding molar concentration for each compound is detailed in Materials and Methods. Depending on their solubility properties, the compounds were dissolved either in water or DMSO (up to 0.75% final concentration).

Another assay concerns E. coli OP50. In words: OP50 growth in screening wells (qualitative). The conditions noted are these: 150 μg/ml, qualitative observation. The format is cell-based, Escherichia coli. The source says: During the screening assays, we qualitatively noticed that OP50 growth was inhibited in wells containing MI. This effect was not observed with DII. To quantify this observation, we determined minimum inhibitory concentration (MIC) and minimum bactericidal concentration (MBC) of both compounds in E. coli cultures (Fig 2A). […] Similar values were obtained when we performed these assays on S. aureus, a Gram-positive bacteria (Fig 2A). […] As we are here screening for specific anthelmintic activity, we restricted our further analysis to compounds that appear to exert nematicidal action without obvious lethal effects on other organisms. Therefore, we focused our studies only on DII, relegating the evaluation of MI as a potential anthelmintic drug.

For assay [2], the system named is Staphylococcus aureus ATCC 25923. Put plainly: Minimum inhibitory and bactericidal concentrations, microdilution. The format is cell-based. Conditions: ATCC25923, 24 h at 37°C; for MBC: read-out: MBC S. aureus; for MIC: read-out: MIC S. aureus. The method, then:
(§1) The strains used in this study were Escherichia coli ATCC 25922 and Staphylococcus aureus ATCC 25923, kindly provided by Dr. Ziegler (Bacillus Genetic Stock Center, The Ohio State University). Stocks were stored in Mueller Hinton Broth (MHB, Biokar Diagnostics, France) supplemented with glycerol 20% at -70°C. Before running each test, the strains were incubated for 48 h at 37°C in MHB. Finally, the bacterial strains were sub-cultured in MHB at 37°C for 24 h. The solutions of antimicrobial agents and imidazolium salts were prepared following the Clinical and Laboratory Standards Institute (CLSI) guidelines for determination of Minimum Inhibitory Concentrations by the microdilution method (CLSI 2009). […] Cultures were incubated as described above and adjusted to OD625nm ~ 0.08–0.13 by the direct colony suspension method in saline water and finally adjusted to 2–8 10^5 CFU/ml by diluting 1:150 in MHB before testing. A volume of 100 μl of each sample dilution in saline water was transferred to the microplate well. Finally, an equal volume of the inoculum was added. The MIC was the lowest concentration at which there was no visible growth when compared with controls after 24 h at 37°C. To assess the minimum bactericidal concentration (MBC), 20 μl aliquots were taken from the wells where no visible growth was observed, seeded on petri dishes and covered with MH agar (MHA) at 45°C. The compounds were considered bactericidal at the concentration at which no visible colony was observed on the plate after 24 h at 37°C. All conditions were run at least in duplicate. The results were obtained from at least 3 independent experiments.

In assay [3] the test system is Escherichia coli ATCC 25922. The description is as above. Type of assay: cell-based. The conditions noted are these: 24 h at 37°C; for MBC / MIC: Escherichia coli, ATCC25922. The method, then:
as §1

Assay [4] has as its system C. elegans. Put plainly: Body length measurements. Type of assay: in vivo, Caenorhabditis elegans. Conditions: 600 μM, 2 h. How it is done: Vehicle (0.75% DMSO) was used as a control. After 2 h, images were acquired and body length was measured using FIJI-ImageJ software. At least three independent experiments were analyzed.
Assay [5] concerns C. elegans. In words: Worm cut preparation paralysis. The format is in vivo, Caenorhabditis elegans. The conditions noted are these: 10 min; DII 600 μM, levamisole 10 μM. How it is done: Cutworm assays were performed as previously described with slight modifications. Briefly, synchronized young adult animals were mounted in a glass microscope slide containing Artificial Perienteric Fluid (APF) (67 mM NaCl, 67 mM NaCH3COOH, 3 mM KCl, 15.7 mM MgCl2, 3 mM CaCl2 and 5 mM Tris, pH 7.6). 10 animals were severed between the middle and tail, approximately two-thirds from the anterior end. Worms were subsequently transferred to a multi-well plate containing APF or drug-APF and paralysis was evaluated after 10 minutes. All experiments were performed at least three times.

Assay [6] deals with C. elegans. In words: Acute paralysis assays. Type of assay: in vivo, Caenorhabditis elegans. How it is done: Acute paralysis assays were carried out in microtiter plates containing the drug dissolved in M9 buffer. […] Each drug concentration was tested in two wells (containing 30 animals each) within a single experiment. […] The experiment was independently repeated at least three times.

Assay [7] relates to C. elegans. Put plainly: Egg-laying assays. Type of assay: in vivo, Caenorhabditis elegans. Conditions: gravid worms. The method, then: Age-synchronized gravid worms were transferred to solid NGM plates containing different drug concentrations (100–300 μM). Each concentration was evaluated in triplicate and DMSO was used as a control. After 1 h, the number of laid eggs per worm was counted. This experiment was independently repeated three times.

The subject of assay [8] is C. elegans. Also on record: method as in PMID 21195075, PMID 23869246. The conditions noted are these: 24 h, even at millimolar concentrations, ref [39], [41]; cited from earlier work.

`Cc1cc(C)c(-n2ccnc2)c(C)c1` [Compound 10, mesityl-imidazole] gave a worm death with C. elegans [1] of 100%. Moreover, the “OP50 growth in screening wells” value in the assay with E. coli OP50 is recorded as “inhibited”. For the same compound, the MBC in [2] and in assay [3] was greater than 256 µg/mL throughout. Moreover, the minimal inhibitory concentration (MIC) in [2] was 128 µg/mL (≈ 687 µM); in [3] it was 128 µg/mL and 680 µM. The “MIC E. coli” value in [3] (listed as MI (10)) was 128 µg/mL (≈ 687 µM).

On to `c1ccc([C@H]2CN3CCSC3=N2)cc1` [levamisole], for which the body length result in the assay on C. elegans [4] is on record as “worm shrinkage”. Further, the “paralysis in cut specimens” value with C. elegans [5] is “paralysis is achieved at very low levamisole concentrations”. Moreover, the “paralysis in CB407 unc-49(e407)III hypersensitive strain” value with C. elegans [6] (100 μM, 10 min) is “hypersensitive”. In addition, the paralyzed animals with C. elegans [6] (600 μM, 10 min) is given as 100%. For the same compound, the EC50 in the assay on C. elegans [6] (10 min, L4 wild-type, Fig 4B, read-out: EC50 acute paralysis) was determined as 63.6 µM; in the assay with C. elegans [6] (Caenorhabditis elegans, 10 min, Fig 4E black circle (probably levamisole alone), 10 min, read-out: EC50 levamisole paralysis), 60 ± 1.12 µM; with C. elegans [6] (Caenorhabditis elegans, 10 min, Fig 4E dark pink triangle up (constant DII, probably 100 μM), 10 min, read-out: EC50 levamisole paralysis in presence of DII), 66 ± 1.15 µM; with C. elegans [6] (Caenorhabditis elegans, 10 min, Fig 4E light pink triangle down (constant DII, probably 200 μM), 10 min, read-out: EC50 levamisole paralysis in presence of DII), 62.2 ± 1.14 µM; with C. elegans [6] (Caenorhabditis elegans, 10 min, L4 wild-type, Fig 4B, read-out: EC50 acute paralysis) it was 63.6 ± 1.1 µM; in the assay on C. elegans [6] (Caenorhabditis elegans, 24 h, S5D Fig pink triangle (probably DII 100 μM for 24 h and during assay), read-out: EC50 levamisole paralysis after DII pre-exposure), 82.2 ± 1.39 µM. In addition, the concentration for a half-maximal effect (EC50) in the assay on C. elegans [6] (Caenorhabditis elegans, S5D Fig black circle (probably control without DII), read-out: EC50 levamisole paralysis) was determined as 82.4 ± 1.23 µM. The “laid eggs in 1 h, fold more than controls” value in the assay with C. elegans [7] (100 μM) was 3.8 fold; with C. elegans [7] (300 μM) it was 3.2 fold.

Take `CCCSc1ccc2nc(NC(=O)OC)[nH]c2c1` [albendazole]: the C. elegans death result with C. elegans [8] was “less than 25%”.

As for `CN1CCCN=C1/C=C/c1cccs1` [pyrantel], the C. elegans death entry in the assay on C. elegans [8] is listed as “less than 25%”.

With `CC(=O)Oc1ccccc1C(=O)Nc1ncc([N+](=O)[O-])s1` [nitazoxanide], the C. elegans death entry in the assay with C. elegans [8] was “less than 25%”.

Take `O=C(O)c1cn(C2CC2)c2cc(N3CCNCC3)c(F)cc2c1=O` [cipro., ciprofloxacin, reference compound]: the MBC in [2] and in assay [3] was 1 µg/mL (≈ 3.02 µM) in each case. The minimal inhibitory concentration (MIC) in assay [2] came out at 0.5 µg/mL (≈ 1.51 µM); in assay [3], 0.25 µg/mL (≈ 0.754 µM).

ivermectin: in the assay with C. elegans [8], the C. elegans death result was “less than 25%”.
